Columns and labels:
pP38 = assay: Immunoblot with densitometric quantification; type: cell-based, human
Experimental: Protein concentration was determined using the BCA Protein Assay (Pierce), and 20-50 μg of lysate were separated in a 4-12% SDS-PAGE gel. After transfer, membranes were blocked for 15-30 min at room temperature in 5% BSA (Sigma) in Tris-buffered saline containing 0.1% Tween-20. Primary antibody was incubated for either 1.5 hours at room temperature or overnight at 4° C. Secondary antibody was incubated for 30-45 min at room temperature, and proteins were visualized with West Pico Stable (Pierce). […]
Densitometric quantifications were carried out using ImageJ software (NIMH).
To investigate the signaling mechanisms elicited by strigolactone analogs in cancer cells, MDA-MB-231, DU145 and HCT116 cells were treated with strigolactone analogs for 1, 4 or 8 hours and lysates were analyzed by immuno-blotting. […]
Immunoblot analysis of MDA-MB-231 and HCT116 cells treated with strigolactone analogs was performed. […] At 4 hours and 8 hours, pP38 levels increased 5 fold and 13 fold respectively following ST-362 treatment compared to vehicle controls (FIG. 13B—a bar graph showing densitometric quantification of pP38 levels as shown in FIG. 13A). […]

Candida oleophila = assay: Yeast cell culture growth (OD); type: cell-based; details: 10 μM, apparent 8 hours after application
Experimental: Saccharomyces cerevisiae and Candida oleophila yeast cells were grown overnight in a reach nutrient media at 28° C., at 150 rpm. Following, they were diluted to 0.4 OD in low nutrient media (Lily) and were divided into 96 wells. The cells were treated with GR-24 or ST-362, at the indicated concentrations. Cell culture growth was monitored every hour for 17 hours, at 28° C., with gentle shake before each OD read. OD was determined using fluorometer. Statistical differences between curves were analyzed using compareGrowthCurves function from the Statistical Modeling package, statmod (http://bioinf.wehi.edu.au/software/compareCurves/), significance was determined once P≤0.05.

[1] = tested on: breast cancer cells both luminal (estrogen receptor positive) and basal (estrogen receptor negative); assay: IC50 by number of cells per well versus control cultures; type: cell-based
Experimental: The IC50 values are defined herein as that concentration of active ingredient at which the number of cells per well at the end of the incubation period is only 50% of the number of cells in the control cultures. The IC50 values thus determined are, for the compounds of formula II, approximately from 0.1 to 50 μmoliliter.

DU145 = assay: Cell cycle analysis with strigolactone removal; type: cell-based, human; details: for G2/M fraction: 24 hours, from 18%; for G2/M fraction 48 hours following removal: vehicle control 28.5%
Experimental: Adherent cells were trypsinyzed, washed twice with PBS and filtered through a […] cell sieve. DNA content was assessed by flow cytometry. Cells were seeded at densities of 1.5×10^5 cells (MDA-MB-231, MDA-MB-436), or 4×10^5 cells (MCF-7 and MCF10A), or 2×10^5 cells (SW480, HT-29), or 5×10^5 cells (HCT116), per well in DMEM with 10% FBS in 6-well plate culture dishes. […] After 48 hours, cells were washed twice with PBS (pH 7.4), centrifuged at 360 g for 10 minutes at 4° C., and fixed in chilled ethanol (70%; v/v in PBS) with gentle vortex mixing. To determine their DNA contents, the cells were stained with 40 μg/ml propidium iodide (hereinafter PI) and analyzed using a FACSCalibur flow cytometer and CellQuest analysis software (Becton Dickinson, San Jose, Calif.). Where phosphoHistone-H3 staining was carried out, cells were incubated with polyclonal antibody against phosphoHistone H3 and then with secondary Goat anti-rabbit IgG-conjugated to FITC prior to PI staining.
To determine whether the strigolactone analogs induced G2 arrest, is also reversible upon strigolactone removal, DU145 cells were treated with MEB-55 for 24 hours, washed twice in PBS and then over-layed with fresh growth media minus MEB-55 and incubated for a further 48 hours (FIG. 17G).

In the case of `CC1=CC(O/C=C2/C(=O)c3c(c4cc(-c5scc6c5OCCO6)ccc4n3C)C2C)OC1=O` (centres unmarked) [ST-362, (2E)-2-[(2,5-dihydro-4-methyl-5-oxofuran-2-yloxy)methylene]-1,2-dihydro-7-(2,3-dihydrothieno[3,4-b][1,4]dioxin-7-yl)-1,4-dimethyl-cyclopenta[b]indole-3-(4H)-one], the “pP38 levels increase compared to vehicle controls” value (pP38; MDA-MB-231, 4 hours) is reported as 5 fold, the “pP38 levels increase compared to vehicle controls” value (pP38; MDA-MB-231, 8 hours) is reported as 13 fold and the Cell culture growth (Candida oleophila) is reported as “reduction of cell culture growth”.

In the case of `CC1=C[C@H](O/C=C2/C(=O)O[C@@H]3c4ccccc4C[C@H]23)OC1=O` (relative stereo) [GR-24, (3aR*,8bS*,E)-3-(((R*)-4-methyl-5-oxo-2,5-dihydrofuran-2-yloxy)methylene)-3,3a,4,8b-tetrahydro-2H-indeno[1,2-b]furan-2-one], the IC50 value [1] is reported as “in the range of micromolar concentration”.

In the case of `CC1=CC(O/C=C2\Cc3c(n(C)c4cc(-c5cccs5)ccc34)C2=O)OC1=O` (racemic) [MEB-55, (±) 2E-4-methyl-2-(4-methyl-5-oxo-2,5-dihydrofuran-2-yloxymethylene)-6-thiophen-2-yl-1,4-dihydro-2H-cyclopenta[b]indol-3-one], the G2/M fraction (DU145; DU145, 5 ppm) is reported as 46%, the “G2/M fraction 48 hours following removal” value (DU145; DU145, 5 ppm) is reported as 29% and the G2/M fraction (DU145; DU145, 10 ppm) is reported as 50%. The “G2/M fraction 48 hours following removal” value (DU145; DU145, 10 ppm) was 29%.

— US10208007B2, “Use of strigolactones and strigolactone analogs for treating proliferative conditions” (The State of Israel, Ministry of Agriculture & Rural …, priority 2011, dated 2019)
